Data reported in US4913909A, “Complex of tea-leaf extract and active aluminum hydroxide” (Mitsui Norin Co., Ltd., priority 1986, dated 1990).

Legend:
[1] = system: indomethacin-induced ulcers (glandular stomach) of rats; test: therapeutic effect against indomethacin ulcers of rats (method of Somogi et al.); assay type: in vivo, male rats of Wistar strain; details: indomethacin 25 mg/kg, 100 mg/kg p.o., 7 hours
Method: The complexes prepared in Examples 1 and 2, referred to as ATM and AEGCg, respectively, hereinbelow, were tested for the therapeutic activity against gastric ulcers of rats such as pylorus-ligated or indomethacin-induced ulcers.
Separately, according to the method of Somogi, et al. disclosed in J. Pharm. Pharmac., volume 21, page 122 (1969), a group of light male rats of Wistar strain each having a body weight of about 200 g were used to test the therapeutic effect of the complexes against indomethacin ulcers. Each of the rats belonging to the test group was, after 24 hours of fasting, orally administered with ATM or AEGCg suspended in a 5% solution of gum arabic followed by oral administration of indomethacin in a dose of 25 mg/kg body weight after 30 minutes from the administration of the ATM or AEGCg. After 7 hours abstinence from food and water, the rat was killed and the stomach was excised and incised along the greater curvature to measure the length of the ulcers appearing on the glandular stomach. The overall length of the ulcers is given in Table 2 below as the ulcer index. The control group was treated in the same manner as above excepting ATM or AEGCg in the gum arabic solution.

acute oral toxicity = test: acute oral toxicity; design: species or system male mice of ddY strain; details: mouse, in vivo, male ddY mice, fasted overnight, read-out: 50% lethal dose (LD50)
Description: Lastly, ATM and AEGCg were subjected to the test of acute toxicity by male mice of ddY strain each having a body weight of 20 to 25 g. After fasting overnight, the mice were orally administered with ATM or AEGCg with varied doses to determine the 50% lethal dose (LD50).

[2] = system: pylorus-ligated ulcers (forestomach) of rats; test: therapeutic activity against pylorus-ligated gastric ulcers of rats (method of Shay et al.); assay type: in vivo, male rats of Wistar strain; details: 100 mg/kg p.o., 18 hours
Method: After fasting 48 hours each rat was put to etherization and the stomach was ligated at the pyloric part. Immediately after the ligation, the rat was orally administered with a suspension of the ATM or AEGCg in a 5% solution of gum arabic. The control group was fed only the solution of gum arabic without either ATM or AEGCg. After 18 hours of abstinence from food and water, the rat was killed and the stomach was excised and incised along the greater curvature to examine the condition of ulcer appearing on the forestomach.

[3] = system: gastric juice / peptic activity in rats; test: antipeptic activity or effect on secretion of gastric juice in pylorus-ligated rats (method of Shay et al.); assay type: in vivo, male rats of Wistar strain; details: 200 mg/kg p.o., 6 hours
Method: Further, the complexes were subjected to the test for the antipeptic activity or the effect on the secretion of gastric juice in rats according to the method of Shay, et al. Thus, a group of eight male rats of Wistar strain each having a body weight of about 200 g were used as the test animals. After 24 hours of fasting, the stomach of each rat was ligated at the pyloric part under etherization. Immediately after the ligation, the rat was orally administered with ATM or AEGCg suspended in a 5% solution of gum arabic. After 6 hours of abstinence from food and water, the rat was again etherized to take out the stomach as ligated at the cardiac end. The gastric juice in the stomach was put to centrifugal separation to give a supernatant of which the volume, overall acidity and overall peptic activity were measured to give the results shown in Table 3.

CN/C(=N/CCSCc1nc[nH]c1C)NC#N [Cimetidine]
Ulcer index (mm) ([1]; overall length of ulcers): 13.3 ± 2.8 mm
Suppression (%) ([1]; ulcer index vs control): 62.4%

O=C(O[C@@H]1Cc2c(O)cc(O)cc2O[C@@H]1c1cc(O)c(O)c(O)c1)c1cc(O)c(O)c(O)c1 [EGCg, (-)-epigallocatechin gallate]
LD50 (acute oral toxicity): 2500 mg/kg

Sucralfate
Ulcer index [2]: 2.86 ± 0.40
Suppression (%) ([2]; ulcer index vs control): 41.5%
Overall acidity (mEq/liter) [3]: 85.4 ± 3.8 mEq/liter
Peptic activity (mg tyrosine) [3]: 585.3 ± 68.0 mg tyrosine
Volume of gastric juice (ml/rat) [3]: 7.98 ± 0.39 ml/rat
Suppression (%) ([3]; peptic activity vs control): 35.0%
